Results published in patent US20060069132A1, “Azolecarboxamide herbicides” (priority 2004, published 2006).

Key:
[1] = tested on: rice; experiment: Test B flooded paddy test; type: in vivo, Oryza sativa; settings: 1000 g ai/ha, visual rating, scale 0 to 100 (0 no effect, 100 complete control), 13 to 15 days
In short: (§1)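 Greenhouse test; postemergence application to plants at 1–4 leaves (2–18 cm); paddy species at 2 leaves; evaluated visually vs controls at 13–15 days; scale 0–100 (100 = complete control).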

[2] = tested on: wild oat; experiment: Test B postemergence herbicide test; type: in vivo, Avena fatua; settings: scale 0 (no effect) to 100 (complete control); for Plant response rating, Oat, Wild: Postemergence, visual rating after 13 to 15 days; for Oat, Wild plant response rating: postemergence, visual rating
In short: as §1

[3] = tested on: morningglory; experiment: Test B pre-/postemergence herbicide test; type: in vivo, Ipomoea coccinea; settings: for Morningglory plant response rating: postemergence, visual rating
In short: (§2)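 Seeds were planted and treated preemergence with compounds formulated in a non-phytotoxic solvent mixture containing surfactant, while plants at the 1- to 4-leaf stage (2 to 18 cm) received postemergence sprays. Flooded paddy plants were grown to the 2-leaf stage. After 13 to 15 days in a greenhouse, injury was visually rated 0–100 against untreated controls.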

[4] = tested on: cocklebur; experiment: Test B pre-/postemergence herbicide test; type: in vivo, Xanthium strumarium
In short: as §2

[5] = tested on: barnyardgrass; experiment: Test B flooded paddy test; type: in vivo, Echinochloa crus-galli; settings: 1000 g ai/ha, visual rating, scale 0 to 100 (0 no effect, 100 complete control), 13 to 15 days
In short: (§3)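 Postemergence plants were sprayed with formulated test chemicals at 2 to 18 cm height (1- to 4-leaf stage); paddy species were grown to the 2-leaf stage. After 13 to 15 days in a greenhouse, injury was rated visually against untreated controls on a 0–100 scale (0 = no effect, 100 = complete control).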

[6] = tested on: velvetleaf; experiment: Test B pre-/postemergence herbicide test; type: in vivo, Abutilon theophrasti; settings: for Velvetleaf plant response rating: postemergence, visual rating
In short: (§4)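 Greenhouse pot assay with simultaneous preemergence (treated seed) and postemergence (2–18 cm seedlings) applications of surfactant-containing, non-phytotoxic solvent formulations. Response scored visually 13–15 days later on a 0–100 scale, 100 meaning complete control.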

[7] = tested on: Surinam grass; experiment: Test B pre-/postemergence herbicide test; type: in vivo, Urochloa decumbens; settings: for Surinam Grass plant response rating: postemergence, visual rating
In short: as §4

[8] = tested on: giant foxtail; experiment: Test B pre-/postemergence herbicide test; type: in vivo, Setaria faberi
In short: as §4

[9] = tested on: lambsquarters; experiment: Test B pre-/postemergence herbicide test; type: in vivo, Chenopodium album; settings: for Lambsquarters plant response rating: postemergence, visual rating
In short: as §4

[10] = tested on: ducksalad; experiment: Test B flooded paddy test; type: in vivo, Heteranthera limosa; settings: 1000 g ai/ha, visual rating, scale 0 to 100 (0 no effect, 100 complete control), 13 to 15 days
In short: as §3

[11] = tested on: large crabgrass; experiment: Test B pre-/postemergence herbicide test; type: in vivo, Digitaria sanguinalis
In short: as §4

[12] = tested on: barnyardgrass; experiment: Test B pre-/postemergence herbicide test; type: in vivo, Echinochloa crus-galli
In short: as §2

[13] = tested on: wheat; experiment: Test B postemergence herbicide test; type: in vivo, Triticum aestivum; set-up: key to Wheat plant response rating: 0 = no effect, 100 = complete control; settings: scale 0 (no effect) to 100 (complete control); for Plant response rating, Wheat: Postemergence, visual rating after 13 to 15 days; for Wheat plant response rating: postemergence, visual rating
In short: as §1

[14] = tested on: small flower umbrella sedge; experiment: Test B flooded paddy test; type: in vivo, Cyperus difformis; settings: 1000 g ai/ha, visual rating, scale 0 to 100 (0 no effect, 100 complete control), 13 to 15 days
In short: as §3

[15] = tested on: pigweed; experiment: Test B pre-/postemergence herbicide test; type: in vivo, Amaranthus retroflexus; settings: for Pigweed plant response rating: postemergence, visual rating
In short: as §4

[16] = preemergence, 125 g ai/ha, 0 to 100 scale, 0 is no effect, 100 is complete control
[17] = Postemergence, 500 g ai/ha, visual rating after 13 to 15 days, scale 0 (no effect) to 100 (complete control)
[18] = Preemergence, 500 g ai/ha, scale 0 to 100
[19] = postemergence, 125 g ai/ha, visual rating, scale 0 (no effect) to 100 (complete control)
[20] = 125 g ai/ha, scale 0 (no effect) to 100 (complete control)
[21] = 500 g ai/ha, scale 0 (no effect) to 100 (complete control)
[22] = 500 g ai/ha, visual rating 0-100, 0 no effect, 100 complete control, preemergence
[23] = postemergence, 500 g ai/ha, visual rating, scale 0 (no effect) to 100 (complete control)

CCOC(=O)c1cccc(NC(=O)c2cc(C(C)(C)C)nn2CCF)c1 [Compound 79]
70: Rice plant response rating [1] | Velvetleaf plant response rating [6, 20] | Lambsquarters plant response rating [9, 20] | Pigweed plant response rating [15, 20]
90: Sedge, Umbrella plant response rating [14]
10: Plant response rating, Velvetleaf [6, 16] | Foxtail, Giant plant response rating [8, 18] | Plant response rating, Foxtail, Giant [8, 16] | Barnyardgrass plant response rating [12, 18]
30: Plant response rating, Oat, Wild ([2]; 500 g ai/ha) | Surinam Grass plant response rating [7, 20] | Foxtail, Giant plant response rating [8, 19] | Plant response rating, Crabgrass, Large [11, 17] | Barnyardgrass plant response rating [12, 19] | Wheat plant response rating ([13]; 125 g ai/ha)
100: Plant response rating, Pigweed [15, 17]
80: Plant response rating, Cocklebur [4, 17] | Cocklebur plant response rating [4, 19] | Plant response rating, Velvetleaf [6, 17] | Plant response rating, Lambsquarters [9, 17] | Ducksalad plant response rating [10]
20: Oat, Wild plant response rating ([2]; 125 g ai/ha) | Crabgrass, Large plant response rating [11, 19]
60: Barnyardgrass plant response rating [5]
40: Plant response rating, Surinam Grass [7, 17] | Plant response rating, Foxtail, Giant [8, 17] | Plant response rating, Barnyardgrass [12, 17] | Plant response rating, Wheat ([13]; 500 g ai/ha)
0: Plant response rating, Morningglory [3, 16] | Cocklebur plant response rating [4, 18] | Plant response rating, Cocklebur [4, 16] | Plant response rating, Surinam Grass [7, 16] | Plant response rating, Lambsquarters [9, 16] | Crabgrass, Large plant response rating [11, 18] | Plant response rating, Crabgrass, Large [11, 16] | Plant response rating, Barnyardgrass [12, 16] | Plant response rating, Pigweed [15, 16]

CCn1nc(C(C)(C)C)cc1C(=O)Nc1cc(C#N)ccc1F [Compound 140]
0: Oat, Wild plant response rating ([2]; 125 g ai/ha) | Oat, Wild plant response rating ([2]; 500 g ai/ha) | Morningglory plant response rating [3, 20] | Morningglory plant response rating [3, 21] | Cocklebur plant response rating [4, 19] | Velvetleaf plant response rating [6, 20] | Velvetleaf plant response rating [6, 21] | Plant response rating, Velvetleaf [6, 16] | Surinam Grass plant response rating [7, 20] | Surinam Grass plant response rating [7, 21] | Plant response rating, Surinam Grass [7, 16] | Foxtail, Giant plant response rating [8, 19] | Foxtail, Giant plant response rating [8, 23] | Plant response rating, Foxtail, Giant [8, 16] | Plant response rating, Lambsquarters [9, 16] | Crabgrass, Large plant response rating [11, 19] | Crabgrass, Large plant response rating [11, 23] | Plant response rating, Crabgrass, Large [11, 16] | Barnyardgrass plant response rating [12, 19] | Barnyardgrass plant response rating [12, 23] | Wheat plant response rating ([13]; 500 g ai/ha) | Pigweed plant response rating [15, 20] | Pigweed plant response rating [15, 21] | Plant response rating, Pigweed [15, 16]
30: Rice plant response rating [1]
20: Cocklebur plant response rating [4, 23] | Plant response rating, Velvetleaf [6, 22] | Lambsquarters plant response rating [9, 20] | Plant response rating, Barnyardgrass [12, 16]
80: Plant response rating, Cocklebur [4, 22] | Plant response rating, Foxtail, Giant [8, 22] | Lambsquarters plant response rating [9, 21] | Ducksalad plant response rating [10] | Plant response rating, Barnyardgrass [12, 22] | Sedge, Umbrella plant response rating [14] | Plant response rating, Pigweed [15, 22]
100: Plant response rating, Lambsquarters [9, 22] | Plant response rating, Crabgrass, Large [11, 22]
60: Plant response rating, Surinam Grass [7, 22]
70: Barnyardgrass plant response rating [5]

CC(=NO)c1cccc(NC(=O)c2cc(C(C)(C)C)nn2CC(F)(F)F)c1 [Compound 112]
90: Plant response rating, Lambsquarters [9, 22] | Lambsquarters plant response rating [9, 20] | Plant response rating, Crabgrass, Large [11, 22] | Plant response rating, Pigweed [15, 22] | Pigweed plant response rating [15, 20]
0: Plant response rating, Morningglory [3, 16] | Plant response rating, Cocklebur [4, 22] | Plant response rating, Cocklebur [4, 16] | Plant response rating, Velvetleaf [6, 16] | Plant response rating, Lambsquarters [9, 16] | Plant response rating, Pigweed [15, 16]
70: Rice plant response rating [1] | Plant response rating, Velvetleaf [6, 17] | Plant response rating, Barnyardgrass [12, 22] | Plant response rating, Barnyardgrass [12, 17]
40: Plant response rating, Oat, Wild ([2]; 500 g ai/ha) | Oat, Wild plant response rating ([2]; 125 g ai/ha)
50: Barnyardgrass plant response rating [5] | Plant response rating, Velvetleaf [6, 22] | Barnyardgrass plant response rating [12, 19] | Plant response rating, Barnyardgrass [12, 16]
20: Morningglory plant response rating [3, 20] | Plant response rating, Surinam Grass [7, 22] | Plant response rating, Surinam Grass [7, 17] | Surinam Grass plant response rating [7, 20] | Plant response rating, Surinam Grass [7, 16] | Plant response rating, Foxtail, Giant [8, 22] | Foxtail, Giant plant response rating [8, 19] | Crabgrass, Large plant response rating [11, 19] | Plant response rating, Crabgrass, Large [11, 16] | Wheat plant response rating ([13]; 125 g ai/ha)
80: Ducksalad plant response rating [10] | Sedge, Umbrella plant response rating [14]
100: Plant response rating, Cocklebur [4, 17] | Plant response rating, Lambsquarters [9, 17] | Plant response rating, Pigweed [15, 17]
60: Plant response rating, Morningglory [3, 22] | Cocklebur plant response rating [4, 19]
10: Plant response rating, Foxtail, Giant [8, 16]
30: Plant response rating, Morningglory [3, 17] | Velvetleaf plant response rating [6, 20] | Plant response rating, Foxtail, Giant [8, 17] | Plant response rating, Crabgrass, Large [11, 17] | Plant response rating, Wheat ([13]; 500 g ai/ha)
